Data on 19 compounds can be found in US8501992B2, “Hydroxyphenyl sulfonamides as antiapoptotic bcl inhibitors” (Bristol-Myers Squibb Company, priority 2008, dated 2013).

In general, Ki refers to a dissociation constant, usually derived from enzyme kinetics or from competition with a known ligand.

Format in all cases: binding
The target in experiment [1] is T1, Bcl-b (Homo sapiens, UniProt Q9HD36).
T1 construct: without their C-terminal transmembrane domain; GST; made in house
T1 sequence (Q9HD36 1-182 limits assumed): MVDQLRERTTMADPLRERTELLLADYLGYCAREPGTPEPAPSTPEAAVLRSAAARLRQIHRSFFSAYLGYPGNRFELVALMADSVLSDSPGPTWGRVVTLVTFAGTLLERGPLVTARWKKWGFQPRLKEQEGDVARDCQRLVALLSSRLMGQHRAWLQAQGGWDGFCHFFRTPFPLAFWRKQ
Kind of experiment: Bclb/Bim fluorescence polarization assay (FPA). To be noted: BIM BH3 peptide 5 nM, Bcl-b 40 nM, Ki calculated from FPA data. The source says:
(§1) Compounds were profiled for their ability to disrupt in vitro binding interactions in fluorescence polarization assays (FPAs) using synthetic fluorochrome-labeled Bcl homology 3 (BH3) peptides derived from BIM [(FAM)-Ahx-[…]-NH2 (SEQ ID NO: 1) (GenBank Accession No. O43521)] or BAK [Ac-GQVGRQLAIIGE-LYS(FAM)-INR-NH2 (SEQ ID NO:2) (GenBank Accession No. Q16611) amino acid sequences and four bacterial recombinant proteins [Bcl-b (GenBank Accession No. Q9HD36), Bcl-2 (GenBank Accession No. P10415), Bcl-Xl (GenBank Accession No. Q07817), Mcl-1 (GenBank Accession No. Q07820)] without their C-terminal transmembrane domain. Proteins were purified from bacterial lysates using their glutathione S-transferase (GST)-tag (Bcl-b, Bcl-2, Mcl-1) or His6-tag (Bcl-Xl) and following one-step affinity chromatography procedures. Dissociation constants (Kd) for peptide binding protein were determined by fluorescence polarization in FPAs measuring BIM BH3 peptide binding Bcl-b, Mcl-1 or Bcl-2 protein or BAK BH3 peptide binding Bcl-Xl protein. The Kd values were generated by fitting the experimental data using a sigmoidal dose-response nonlinear regression model.
(§2) Compound inhibitory concentration values, IC50 (50% reduction in fluorescence polarization), were determined using fluorochrome-labeled BH3 peptides and recombinant Bcl proteins in fluorescence polarization assays (FPAs). Compounds diluted in DMSO (0.5 ul) were transferred (in duplicate) to individual wells of a 384-well plate. The fluorochrome-labeled peptide was added followed by recombinant protein addition. Each binding FPA reaction (50 ul) contained BIM BH3 peptide (5 nM) or BAK BH3 peptide (1.5 nM) and Bcl-b (40 nM), Mcl-1 (28 nM), Bcl-2 (11 nM) or Bcl-Xl. (5 nM) protein suspended in assay buffer [20 mM sodium phosphate, pH 7.4, 1 mM EDTA, 50 mM NaCl., 0.05% Pluronic F68]. Reaction mixtures were incubated at ambient temperature for 60 minutes prior to measuring polarization (mP) using an Analyst (LJL, Molecular Devices, Sunnyvale, Calif.) programmed to detect an emission wavelength of 530 nm after excitation (excitation wavelength=485 nm).
(§3) Competitive compound inhibition constants (Ki) were calculated using FPA experimental data and a mathematical equation, Ki=[I]50/([L]50/Kd+[P]0/Kd+1), where [I]50 denotes free inhibitor concentration at 50% inhibition, [L]50 is free labeled ligand concentration at 50% inhibition, [P]0 is free protein concentration at 0% inhibition, and Kd is the dissociation constant of the protein-ligand complex.

In experiment [2] the target is T2, Mcl-1 (Homo sapiens, UniProt Q07820).
T2 construct: without their C-terminal transmembrane domain; GST; made in house
T2 sequence (Q07820 1-327 limits assumed): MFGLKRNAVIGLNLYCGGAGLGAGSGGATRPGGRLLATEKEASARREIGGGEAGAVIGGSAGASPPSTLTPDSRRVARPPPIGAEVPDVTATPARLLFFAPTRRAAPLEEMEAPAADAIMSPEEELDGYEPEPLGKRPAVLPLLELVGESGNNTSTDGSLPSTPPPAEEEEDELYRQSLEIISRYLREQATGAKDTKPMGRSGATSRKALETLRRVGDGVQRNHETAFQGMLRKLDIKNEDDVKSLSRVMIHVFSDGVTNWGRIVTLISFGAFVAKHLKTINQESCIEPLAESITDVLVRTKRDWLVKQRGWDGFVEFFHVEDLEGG
Kind of experiment: Mcl-1/Bim fluorescence polarization assay (FPA). To be noted: BIM BH3 peptide 5 nM, Mcl-1 28 nM, Ki calculated from FPA data.
Text: as §1, §2, §3

The target in experiment [3] is T3, Bcl-2 (Homo sapiens, UniProt P10415).
T3 construct: without their C-terminal transmembrane domain; GST; made in house
T3 sequence (P10415 1-211 limits assumed): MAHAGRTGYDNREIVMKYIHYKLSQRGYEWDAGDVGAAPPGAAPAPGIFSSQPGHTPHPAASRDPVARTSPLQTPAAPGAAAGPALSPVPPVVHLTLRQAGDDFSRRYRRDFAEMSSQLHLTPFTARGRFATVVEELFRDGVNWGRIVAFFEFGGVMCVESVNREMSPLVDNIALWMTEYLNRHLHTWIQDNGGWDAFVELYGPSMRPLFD
The experiment in a line: Bcl2/Bim fluorescence polarization assay (FPA). The conditions noted are these: BIM BH3 peptide 5 nM, Bcl-2 11 nM, Ki calculated from FPA data.
Text: as §1, §2, §3

In the case of `O=C(c1cccc(CN(Cc2ccc(F)cc2)S(=O)(=O)c2cc(Cl)cc(Cl)c2O)c1)N(Cc1ccc(F)cc1)Cc1cc(Cl)cc(Cl)c1` [Example 95, 3-((3,5-Dichloro-N-(4-fluorobenzyl)-2-hydroxyphenylsulfonamido)methyl)-N-(3,5-dichlorobenzyl)-N-(4-fluorobenzyl)benzamide], the Ki in experiment [1] was 60 nM; in experiment [2] it was 70 nM; in experiment [3] it was 120 nM.

In the case of `O=S(=O)(c1cc(Cl)cc(Cl)c1O)N(Cc1ccc(F)cc1)Cc1ccc(CN(Cc2ccc(F)cc2)S(=O)(=O)c2cc(Cl)cc(Cl)c2O)cc1` [Example 96, N-(4-Fluoro-benzyl)-N-(4-{[(4-fluoro-benzyl)-(3,5-dichloro-2-hydroxybenzene)sulfonyl-amino]-methyl}-benzyl)-3,5-dichloro-2-hydroxybenzenesulfonamide], the Ki was 60 nM in experiment [1], 10 nM in experiment [2] and 110 nM in experiment [3].

Consider `CC(C)CN(Cc1ccc(CN(CC(C)C)S(=O)(=O)c2cc(Cl)cc(Cl)c2O)cc1)S(=O)(=O)c1cc(Cl)cc(Cl)c1O` [Example 97, N-Isobutyl-N-{4-[(isobutyl-(3,5-dichloro-2-hydroxybenzene)sulfonyl-amino)-methyl]-benzyl}-(3,5-dichloro-2-hydroxybenzene)sulfonamide], for which the Ki is 70 nM in experiment [1], 100 nM in experiment [2] and 110 nM in experiment [3].

For `O=S(=O)(NCc1ccc(CN(Cc2ccc(F)cc2)S(=O)(=O)c2cc(Cl)cc(Cl)c2O)cc1)c1cc(Cl)cc(Cl)c1` [Example 98, 3,5-Dichloro-N-(4-((3,5-dichlorophenylsulfonamido)methyl)benzyl)-N-(4-fluorobenzyl)-2-hydroxybenzenesulfonamide], the results for the Ki in experiment [1], in experiment [2] and in experiment [3] were 160 nM, 280 nM and 230 nM, respectively.

`O=C(c1ccc(CN(Cc2ccc(F)cc2)S(=O)(=O)c2cc(Cl)cc(Cl)c2O)cc1)N(Cc1ccc(F)cc1)Cc1cc(Cl)cc(Cl)c1` [Example 106, 4-((3,5-Dichloro-N-(4-fluorobenzyl)-2-hydroxyphenylsulfonamido)methyl)-N-(3,5-dichlorobenzyl)-N-(4-fluorobenzyl)benzamide]: the inhibition constant (Ki) in experiment [1], in experiment [2] and in experiment [3] was 40 nM throughout.

Regarding `CC(C)N(Cc1ccccc1)C(=O)c1ccc(CN(Cc2ccc(F)cc2)S(=O)(=O)c2cc(Cl)cc(Cl)c2O)cc1` [Example 107, N-Benzyl-4-((3,5-dichloro-N-(4-fluorobenzyl)-2-hydroxyphenylsulfonamido)methyl)-N-isopropylbenzamide], the Ki in experiment [1] was 210 nM; in experiment [2], 520 nM; in experiment [3], 480 nM.

As to `O=C(c1ccc(CN(Cc2ccc(F)cc2)S(=O)(=O)c2cc(Cl)cc(Cl)c2O)cc1)N1CCCCC1` [Example 130], the Ki is 440 nM in experiment [1], 2060 nM in experiment [2] and 840 nM in experiment [3].

In the case of `CC(C)CCNC(=O)c1ccc(CN(Cc2ccc(F)cc2)S(=O)(=O)c2cc(Cl)cc(Cl)c2O)cc1` [Example 135, 4-((3,5-Dichloro-N-(4-fluorobenzyl)-2-hydroxyphenylsulfonamido)methyl)-N-isopentylbenzamide], the Ki in experiment [1] was 280 nM; in experiment [2], 490 nM; in experiment [3], 610 nM.

Turning to `CN(CCc1ccccc1)C(=O)c1ccc(CN(Cc2ccc(F)cc2)S(=O)(=O)c2cc(Cl)cc(Cl)c2O)cc1` [Example 137, 4-((3,5-Dichloro-N-(4-fluorobenzyl)-2-hydroxyphenylsulfonamido)methyl)-N-methyl-N-phenethylbenzamide], the results for the Ki in experiment [1], in experiment [2] and in experiment [3] were 220 nM, 480 nM and 250 nM, respectively.

Regarding `CCCCNC(=O)c1ccc(CN(Cc2ccc(F)cc2)S(=O)(=O)c2cc(Cl)cc(Cl)c2O)cc1` [Example 138, N-Butyl-4-((3,5-dichloro-N-(4-fluorobenzyl)-2-hydroxyphenylsulfonamido)methyl)-benzamide], the Ki in experiment [1] was 450 nM; in experiment [2], 1760 nM; in experiment [3], 820 nM.

Consider `O=C(c1ccc(CN(Cc2ccc(F)cc2)S(=O)(=O)c2cc(Cl)cc(Cl)c2O)cc1)N1CCN(c2cnccn2)CC1` [Example 140, 3,5-Dichloro-N-(4-fluorobenzyl)-2-hydroxy-N-(4-(4-(pyrazin-2-yl)piperazine-1-carbonyl)benzyl)benzenesulfonamide], for which the values for the Ki in experiment [1], in experiment [2] and in experiment [3] were 500 nM, 1730 nM and 660 nM, respectively.

`O=C(N[C@H]1C[C@@H]1c1ccccc1)c1ccc(CN(Cc2ccc(F)cc2)S(=O)(=O)c2cc(Cl)cc(Cl)c2O)cc1` [Example 143, 4-((3,5-Dichloro-N-(4-fluorobenzyl)-2-hydroxyphenylsulfonamido)methyl)-N-((1S,2R)-2-phenylcyclopropyl)benzamide]: the Ki in experiment [1] was 170 nM; in experiment [2] it was 450 nM; in experiment [3] it was 370 nM.

As for `NS(=O)(=O)c1ccc(CNC(=O)c2ccc(CN(Cc3ccc(F)cc3)S(=O)(=O)c3cc(Cl)cc(Cl)c3O)cc2)cc1` [Example 147, 4-((3,5-Dichloro-N-(4-fluorobenzyl)-2-hydroxyphenylsulfonamido)methyl)-N-(4-sulfamoylbenzyl)benzamide], the Ki in experiment [1] is 450 nM; in experiment [2], 1730 nM; in experiment [3], 960 nM.

Turning to `CN(C)c1ccc(CNC(=O)c2ccc(CN(Cc3ccc(F)cc3)S(=O)(=O)c3cc(Cl)cc(Cl)c3O)cc2)cc1` [Example 150, 4-((3,5-Dichloro-N-(4-fluorobenzyl)-2-hydroxyphenylsulfonamido)methyl)-N-(4-(dimethylamino)benzyl)benzamide], the inhibition constant (Ki) was 200 nM in experiment [1], 460 nM in experiment [2] and 440 nM in experiment [3].

With `O=C(c1ccc(N(Cc2ccc(F)cc2)S(=O)(=O)c2cc(Cl)cc(Cl)c2O)cc1)N(Cc1ccc(F)cc1)Cc1cc(Cl)cc(Cl)c1` [Example 175, 4-(3,5-Dichloro-N-(4-fluorobenzyl)-2-hydroxyphenylsulfonamido)-N-(3,5-dichlorobenzyl)-N-(4-fluorobenzyl)benzamide], the Ki is 60 nM in experiment [1], 30 nM in experiment [2] and 40 nM in experiment [3].

For `O=S(=O)(c1cc(Cl)cc(Cl)c1)N(CCO)Cc1ccc(CN(Cc2ccc(F)cc2)S(=O)(=O)c2cc(Cl)cc(Cl)c2O)cc1` [Example 176], the figures for the Ki in experiment [1], in experiment [2] and in experiment [3] were 180 nM, 480 nM and 440 nM, respectively.

As for `CC(C)CN(Cc1cccc(CN(Cc2ccc(-c3ccc(F)cc3)cc2)S(=O)(=O)c2cc(Cl)cc(Cl)c2O)c1)C(=O)c1ccc2[nH]c(=O)c(=O)[nH]c2c1` [Example 190, N-(3-((3,5-Dichloro-N-((4′-fluorobiphenyl-4-yl)methyl)-2-hydroxyphenylsulfonamido)methyl)-benzyl)-N-isobutyl-2,3-dioxo-1,2,3,4-tetrahydroquinoxaline-6-carboxamide], the Ki in experiment [1] is 150 nM; in experiment [2], 550 nM; in experiment [3], 180 nM.

Take `CC(C)CN(Cc1cccc(CN(Cc2ccc(-c3ccc(F)cc3)cc2)S(=O)(=O)c2cc(Cl)cc(Cl)c2O)c1)C(=O)c1nc2ccccc2s1` [Example 191, N-(3-((3,5-Dichloro-N-((4′-fluorobiphenyl-4-yl)methyl)-2-hydroxyphenylsulfonamido)methyl)-benzyl)-N-isobutylbenzo[d]thiazole-2-carboxamide]: the inhibition constant Ki in experiment [1] is 180 nM; in experiment [2], 530 nM; in experiment [3], 110 nM.

Consider `CC(C)NC(=O)c1cc(Cl)c(O)c(S(=O)(=O)N(Cc2ccc(F)cc2)Cc2cccc(-c3ccc(Cl)cc3)c2)c1` [Example 211, 3-Chloro-5-(N-((4′-chlorobiphenyl-3-yl)methyl)-N-(4-fluorobenzyl)-sulfamoyl)-4-hydroxy-N-isopropylbenzamide], for which the values for the inhibitory constant (Ki) in experiment [1], in experiment [2] and in experiment [3] were 160 nM, 530 nM and 480 nM, respectively.
